Laboratory results from patent publication US20240189495A1, “METHODS OF PREPARING AN EXTRACORPOREAL CIRCUIT FOR ANTICOAGULATION” (Lawell Therapeutics, LLC, priority 2021, published 2024).

Experiments:
Assay type in all cases: physicochemical
[1] = Adsorption of nafamostat to circuit tubing, in vitro dialysis circuit without filter, HPLC; settings: for Percent of Nafamostat Remaining as a Ratio of the Starting Concentration at Time 0: tubing only, no filter
Procedure: A dialysis apparatus was established as described in FIG. 5 without using a filter. An experiment was conducted to determine the adsorption characteristics to the tubing. The solution was circulated through the tubing at typical CRRT flow rates of 100-300 milliliters per minute (FIG. 5). The concentration of nafamostat was measured via HPLC at 0, 5, 10 and 20 minutes. Only one reservoir of nafamostat was used. Therefore, any change in concentration represents adsorption since the molecule cannot escape the system. […] Therefore, any change in concentration can be attributed to adsorption onto the filter membrane tested.

[2] = Saturation of polyacrylonitrile filter by repeated replenishment of nafamostat solution (Example 8)
Procedure: To determine if a polyacrylonitrile filter can be saturated, and if so, what quantity of nafamostat would be required, an in vitro experiment was conducted wherein 632 milligrams of nafamostat were passed through the filter in the same manner as described in FIG. 5 for 20 minutes. Then the solution was replenished with an additional 632 milligrams (solution B-1), which was circulated for an additional 20 minutes, followed by replenishment with an additional 632 milligrams (solution B-2), which was circulated for an additional 20 minutes and finally replenished with an additional 379 milligrams. The total quantity of 2275 milligrams represents a three-day consumption of nafamostat at the maximum dose of 31.2 mg/h. As one can see from Table 4, nafamostat continues to adsorb to the polyacrylonitrile filter even after the entire quantity of 2275 milligrams has been delivered.

[3] = Filter membrane adsorption in in vitro dialysis circuit, HPLC; settings: for Quantity (% nafamostat free base) remaining after the initiation of priming: 500 mL; for Quantity (mcg nafamostat free base) adsorbed over time (minutes), Avg.: average of 5, 10, 20 min; for Time in which the change in concentration is complete: regardless the solution concentration
Procedure: A dialysis apparatus was established as described in FIG. 5 using a PS, PES, PAES, or a PAN filter. A series of experiments was conducted using various filter membranes in an in vitro model to determine the filter membrane adsorption characteristics. A solution of nafamostat was circulated through the blood and dialysate sides of the filter at typical CRRT flow rates of 100-300 milliliters per minute. The concentration of nafamostat was measured via HPLC at 0, 5, 10 and 20 minutes. Only one reservoir of nafamostat was used. Therefore, any change in concentration represents adsorption since the molecule cannot escape the system. The following filters were used: Polyethersulfone (PES) from […], part number CAR-505; Polyarylethersulfone (PAES) from Baxter, part number HF1000; Polyacrylonitrile (PAN) from Baxter, part number M100; Polysulfone (PS) from Baxter, part number F50; no filter, tubing only from Baxter, part number M100. Baxter tubing was used for all filter tests.

Percent of Nafamostat Remaining as a Ratio of the Starting Concentration at Time 0 ([1]; 0 min): 100%
Percent of Nafamostat Remaining as a Ratio of the Starting Concentration at Time 0 ([1]; 5 min): 100%
Percent of Nafamostat Remaining as a Ratio of the Starting Concentration at Time 0 ([1]; 10 min): 101%
Percent of Nafamostat Remaining as a Ratio of the Starting Concentration at Time 0 ([1]; 20 min): 100%
Adsorption onto the tubing ([1]; tubing used for all tests): does not adsorb substantially
Amount of Nafamostat Remaining as a Ratio of the Starting Concentration at Time 0 ([2]; Example 8, Solution A 632 mg, 0 min): 99.2%
Amount of Nafamostat Remaining as a Ratio of the Starting Concentration at Time 0 ([2]; Example 8, Solution A 632 mg, 5 min): 8.5%
Amount of Nafamostat Remaining as a Ratio of the Starting Concentration at Time 0 ([2]; Example 8, Solution A 632 mg, 10 min): 0.8%
Amount of Nafamostat Remaining as a Ratio of the Starting Concentration at Time 0 ([2]; Example 8, Solution A 632 mg, 20 min): 0.0%
Amount of Nafamostat Remaining as a Ratio of the Starting Concentration at Time 0 ([2]; Example 8, Solution B-1, added 632 mg, 0 min): 100.0%
Amount of Nafamostat Remaining as a Ratio of the Starting Concentration at Time 0 ([2]; Example 8, Solution B-1, added 632 mg, 5 min): 14.6%
Amount of Nafamostat Remaining as a Ratio of the Starting Concentration at Time 0 ([2]; Example 8, Solution B-1, added 632 mg, 10 min): 6.2%
Amount of Nafamostat Remaining as a Ratio of the Starting Concentration at Time 0 ([2]; Example 8, Solution B-1, added 632 mg, 20 min): 3.1%
Amount of Nafamostat Remaining as a Ratio of the Starting Concentration at Time 0 ([2]; Example 8, Solution B-2, added 632 mg, 0 min): 100.0%
Amount of Nafamostat Remaining as a Ratio of the Starting Concentration at Time 0 ([2]; Example 8, Solution B-2, added 632 mg, 5 min): 20.0%
Amount of Nafamostat Remaining as a Ratio of the Starting Concentration at Time 0 ([2]; Example 8, Solution B-2, added 632 mg, 10 min): 14.6%
Amount of Nafamostat Remaining as a Ratio of the Starting Concentration at Time 0 ([2]; Example 8, Solution B-2, added 632 mg, 20 min): 10.8%
Amount of Nafamostat Remaining as a Ratio of the Starting Concentration at Time 0 ([2]; Example 8, Solution B-3, added 379 mg, 0 min): 100.0%
Amount of Nafamostat Remaining as a Ratio of the Starting Concentration at Time 0 ([2]; Example 8, Solution B-3, added 379 mg, 5 min): 20.8%
Amount of Nafamostat Remaining as a Ratio of the Starting Concentration at Time 0 ([2]; Example 8, Solution B-3, added 379 mg, 10 min): 19.2%
Amount of Nafamostat Remaining as a Ratio of the Starting Concentration at Time 0 ([2]; Example 8, Solution B-3, added 379 mg, 20 min): 17.7%
Saturation of the PAN filter with nafamostat ([2]; total quantity of 2275 milligrams delivered): cannot be saturated
Quantity (% nafamostat free base) remaining after the initiation of priming ([3]; Example 2, PS F50, 158 mcg/mL, 0 min): 100%
Quantity (% nafamostat free base) remaining after the initiation of priming ([3]; Example 2, PS F50, 158 mcg/mL, 5 min): 96.7%
Quantity (% nafamostat free base) remaining after the initiation of priming ([3]; Example 2, PS F50, 158 mcg/mL, 10 min): 96.8%
Quantity (% nafamostat free base) remaining after the initiation of priming ([3]; Example 2, PS F50, 158 mcg/mL, 20 min): 97.2%
Quantity (mcg nafamostat free base) adsorbed over time (minutes) ([3]; Example 2, PS F50, prime quantity 79,000 mcg, 5 min): 2,620 mcg
Quantity (mcg nafamostat free base) adsorbed over time (minutes) ([3]; Example 2, PS F50, prime quantity 79,000 mcg, 10 min): 2,559 mcg
Quantity (mcg nafamostat free base) adsorbed over time (minutes) ([3]; Example 2, PS F50, prime quantity 79,000 mcg, 20 min): 2,222 mcg
Quantity (mcg nafamostat free base) adsorbed over time (minutes), Avg. ([3]; Example 2, PS F50, prime quantity 79,000 mcg): 2,467 mcg
Quantity (% nafamostat free base) remaining after the initiation of priming ([3]; Example 3, PES CAR-505, 158 mcg/mL, 0 min): 100%
Quantity (% nafamostat free base) remaining after the initiation of priming ([3]; Example 3, PES CAR-505, 158 mcg/mL, 5 min): 95.6%
Quantity (% nafamostat free base) remaining after the initiation of priming ([3]; Example 3, PES CAR-505, 158 mcg/mL, 10 min): 95.6%
Quantity (% nafamostat free base) remaining after the initiation of priming ([3]; Example 3, PES CAR-505, 158 mcg/mL, 20 min): 95.6%
Quantity (mcg nafamostat free base) adsorbed over time (minutes) ([3]; Example 3, PES CAR-505, prime quantity 79,000 mcg, 5 min): 3,555 mcg
Quantity (mcg nafamostat free base) adsorbed over time (minutes) ([3]; Example 3, PES CAR-505, prime quantity 79,000 mcg, 10 min): 3,555 mcg
Quantity (mcg nafamostat free base) adsorbed over time (minutes) ([3]; Example 3, PES CAR-505, prime quantity 79,000 mcg, 20 min): 3,555 mcg
Quantity (mcg nafamostat free base) adsorbed over time (minutes), Avg. ([3]; Example 3, PES CAR-505, prime quantity 79,000 mcg): 3,555 mcg
Quantity (% nafamostat free base) remaining after the initiation of priming ([3]; Example 4, PAES HF1000, 158 mcg/mL, 0 min): 100%
Quantity (% nafamostat free base) remaining after the initiation of priming ([3]; Example 4, PAES HF1000, 158 mcg/mL, 5 min): 96.9%
Quantity (% nafamostat free base) remaining after the initiation of priming ([3]; Example 4, PAES HF1000, 158 mcg/mL, 10 min): 97.2%
Quantity (% nafamostat free base) remaining after the initiation of priming ([3]; Example 4, PAES HF1000, 158 mcg/mL, 20 min): 97.1%
Quantity (mcg nafamostat free base) adsorbed over time (minutes) ([3]; Example 4, PAES HF1000, prime quantity 79,000 mcg, 5 min): 2,446 mcg
Quantity (mcg nafamostat free base) adsorbed over time (minutes) ([3]; Example 4, PAES HF1000, prime quantity 79,000 mcg, 10 min): 2,184 mcg
Quantity (mcg nafamostat free base) adsorbed over time (minutes) ([3]; Example 4, PAES HF1000, prime quantity 79,000 mcg, 20 min): 2,261 mcg
Quantity (mcg nafamostat free base) adsorbed over time (minutes), Avg. ([3]; Example 4, PAES HF1000, prime quantity 79,000 mcg): 2,297 mcg
Quantity (% nafamostat free base) remaining after the initiation of priming ([3]; Example 5, PAN M100, 158 mcg/mL, 0 min): 98.7%
Quantity (% nafamostat free base) remaining after the initiation of priming ([3]; Example 5, PAN M100, 158 mcg/mL, 5 min): 20.5%
Quantity (% nafamostat free base) remaining after the initiation of priming ([3]; Example 5, PAN M100, 158 mcg/mL, 10 min): 4.3%
Quantity (% nafamostat free base) remaining after the initiation of priming ([3]; Example 5, PAN M100, 158 mcg/mL, 20 min): 0.3%
Quantity (mcg nafamostat free base) adsorbed over time (minutes) ([3]; Example 5, PAN M100, prime quantity 79,000 mcg, 5 min): 61,770 mcg
Quantity (mcg nafamostat free base) adsorbed over time (minutes) ([3]; Example 5, PAN M100, prime quantity 79,000 mcg, 10 min): 74,594 mcg
Quantity (mcg nafamostat free base) adsorbed over time (minutes) ([3]; Example 5, PAN M100, prime quantity 79,000 mcg, 20 min): 77,732 mcg
Quantity (mcg nafamostat free base) adsorbed over time (minutes), Avg. ([3]; Example 5, PAN M100, prime quantity 79,000 mcg): 71,365 mcg
Quantity (% nafamostat free base) remaining after the initiation of priming ([3]; Example 6, PAN M100, 316 mcg/mL, 0 min): 99.5%
Quantity (% nafamostat free base) remaining after the initiation of priming ([3]; Example 6, PAN M100, 316 mcg/mL, 5 min): 20.4%
Quantity (% nafamostat free base) remaining after the initiation of priming ([3]; Example 6, PAN M100, 316 mcg/mL, 10 min): 4.3%
Quantity (% nafamostat free base) remaining after the initiation of priming ([3]; Example 6, PAN M100, 316 mcg/mL, 20 min): 0.4%
Quantity (mcg nafamostat free base) adsorbed over time (minutes) ([3]; Example 6, PAN M100, prime quantity 158,000 mcg, 5 min): 124,946 mcg
Quantity (mcg nafamostat free base) adsorbed over time (minutes) ([3]; Example 6, PAN M100, prime quantity 158,000 mcg, 10 min): 150,288 mcg
Quantity (mcg nafamostat free base) adsorbed over time (minutes) ([3]; Example 6, PAN M100, prime quantity 158,000 mcg, 20 min): 156,502 mcg
Quantity (mcg nafamostat free base) adsorbed over time (minutes), Avg. ([3]; Example 6, PAN M100, prime quantity 158,000 mcg): 143,912 mcg
Quantity (% nafamostat free base) remaining after the initiation of priming ([3]; Example 7, PAN M100, 632 mcg/mL, 0 min): 99.1%
Quantity (% nafamostat free base) remaining after the initiation of priming ([3]; Example 7, PAN M100, 632 mcg/mL, 5 min): 17.4%
Quantity (% nafamostat free base) remaining after the initiation of priming ([3]; Example 7, PAN M100, 632 mcg/mL, 10 min): 2.7%
Quantity (% nafamostat free base) remaining after the initiation of priming ([3]; Example 7, PAN M100, 632 mcg/mL, 20 min): 0.04%
Quantity (mcg nafamostat free base) adsorbed over time (minutes) ([3]; Example 7, PAN M100, prime quantity 316,000 mcg, 5 min): 258,314 mcg
Quantity (mcg nafamostat free base) adsorbed over time (minutes) ([3]; Example 7, PAN M100, prime quantity 316,000 mcg, 10 min): 304,629 mcg
Quantity (mcg nafamostat free base) adsorbed over time (minutes) ([3]; Example 7, PAN M100, prime quantity 316,000 mcg, 20 min): 313,065 mcg
Quantity (mcg nafamostat free base) adsorbed over time (minutes), Avg. ([3]; Example 7, PAN M100, prime quantity 316,000 mcg): 292,003 mcg
Time in which the change in concentration is complete ([3]; non-PAN filter (PAES)): ≤ 5 min
Time in which the change in concentration is complete ([3]; non-PAN filter (PES)): ≤ 5 min
Time in which the change in concentration is complete ([3]; non-PAN filter (PS)): ≤ 5 min
Change in concentration in the PAN filters ([3]; within the first 5 minutes): 80%
Change in concentration in the PAN filters ([3]; within the first 10 minutes): 95%
Change in concentration in the PAN filters ([3]; within the first 15 minutes): 99%
Change in concentration in the PAN filters ([3]; within the first 20 minutes): 99.5%
SMILES: N=C(N)c1ccc2cc(OC(=O)c3ccc(N=C(N)N)cc3)ccc2c1 [Nafamostat, nafamostat]
